Where only a bound is given, the exact number is not on record here.

Sequence of human PDE4D catalytic domain (Q08499 380-740 limits assumed): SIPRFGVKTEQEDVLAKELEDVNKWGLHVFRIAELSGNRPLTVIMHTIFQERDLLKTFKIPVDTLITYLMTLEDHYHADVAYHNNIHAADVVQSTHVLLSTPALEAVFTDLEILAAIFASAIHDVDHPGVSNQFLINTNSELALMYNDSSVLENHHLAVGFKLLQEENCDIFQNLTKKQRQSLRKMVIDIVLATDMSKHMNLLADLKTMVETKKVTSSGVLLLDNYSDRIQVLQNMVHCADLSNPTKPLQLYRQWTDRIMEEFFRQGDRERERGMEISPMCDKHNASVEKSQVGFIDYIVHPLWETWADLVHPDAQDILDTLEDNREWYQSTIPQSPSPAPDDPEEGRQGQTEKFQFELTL

The target of this assay is human PDE4D catalytic domain (UniProt no. Q08499) (Homo sapiens (Human), UniProt Q08499). Kind of assay: PDE4 assay (TR-FRET, FAM-cAMP cleavage). It is filed as biochemical. To be noted: read-out: PDE4 IC50 range. In short, it runs like this:
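PDE4D catalytic domain ([…]) was incubated with unlabelled cAMP plus FAM-cAMP and titrated compound, stopped with binding buffer of metal-ion nanoparticles and Tb donor. AMP generation read by TR-FRET; IC50 as 50% inhibition of cleavage versus controls, reported as nM ranges.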
Background: Time-resolved FRET reads energy transfer from a long-lived donor to a nearby acceptor.
As for `CCc1nn(C[C@@H](C)COC(=O)c2cccc(C(=O)N3CCOCC3)c2)c2c1C(=O)NCC1(CCOCC1)C2` [Example 271, [(2R)-3-(3-ethyl-4-oxo-spiro[6,8-dihydro-5H-pyrazolo[4,3-c]azepine-7,4′-tetrahydropyran]-1-yl)-2-methyl-propyl] 3-(morpholine-4-carbonyl)benzoate], the IC50 is below 100 nM. Turning to `CCc1nn(C[C@@H](C)COC(=O)c2cccc(C(=O)N3CCN(C)CC3)c2)c2c1C(=O)NCC1(CCOCC1)C2` [Example 272, [(2R)-3-(3-ethyl-4-oxo-spiro[6,8-dihydro-5H-pyrazolo[4,3-c]azepine-7,4′-tetrahydropyran]-1-yl)-2-methyl-propyl] 3-(4-methylpiperazine-1-carbonyl)benzoate], the IC50 is below 100 nM.

Turning to `CCc1nn(C[C@@H](C)COC(=O)c2cccc(C(=O)N3CCN(C(C)=O)CC3)c2)c2c1C(=O)NCC1(CCOCC1)C2` [Example 273, [(2R)-3-(3-ethyl-4-oxo-spiro[6,8-dihydro-5H-pyrazolo[4,3-c]azepine-7,4′-tetrahydropyran]-l-yl)-2-methyl-propyl] 3-(4-acetylpiperazine-1-carbonyl)benzoate], the IC50 was below 100 nM.

For the compound `CCc1nn(C[C@H](C)COC(=O)c2ccccc2)c2c1C(=O)NCC1(CCOCC1)C2` [Example 274, [(2S)-3-(3-ethyl-4-oxo-spiro[6,8-dihydro-5H-pyrazolo[4,3-c]azepine-7,4′-tetrahydropyran]-1-yl)-2-methyl-propyl] benzoate], the IC50 was below 100 nM. As for `CCc1nn(C[C@H](C)COC(=O)c2ccc(C)cc2)c2c1C(=O)NCC1(CCOCC1)C2` [Example 275, [(2S)-3-(3-ethyl-4-oxo-spiro[6,8-dihydro-5H-pyrazolo[4,3-c]azepine-7,4′-tetrahydropyran]-1-yl)-2-methyl-propyl] 4-methylbenzoate], the IC50 was below 100 nM. To `CCc1nn(C[C@H](C)COC(=O)c2cccc(F)c2)c2c1C(=O)NCC1(CCOCC1)C2` [Example 276, [(2S)-3-(3-ethyl-4-oxo-spiro[6,8-dihydro-5H-pyrazolo[4,3-c]azepine-7,4′-tetrahydropyran]-1-yl)-2-methyl-propyl] 3-fluorobenzoate] belongs below 100 nM. To `CCc1nn(C[C@H](C)COC(=O)c2ccc(F)cc2)c2c1C(=O)NCC1(CCOCC1)C2` [Example 277, [(2S)-3-(3-ethyl-4-oxo-spiro[6,8-dihydro-5H-pyrazolo[4,3-c]azepine-7,4′-tetrahydropyran]-1-yl)-2-methyl-propyl] 4-fluorobenzoate] belongs below 100 nM; to `CCc1nn(C[C@H](C)COC(=O)c2cccc(OC)c2)c2c1C(=O)NCC1(CCOCC1)C2` [Example 278, [(2S)-3-(3-ethyl-4-oxo-spiro[6,8-dihydro-5H-pyrazolo[4,3-c]azepine-7,4′-tetrahydropyran]-1-yl)-2-methyl-propyl] 3-methoxybenzoate], below 100 nM.

Take `CCc1nn(C[C@H](C)COC(=O)c2ccc(Cl)cc2)c2c1C(=O)NCC1(CCOCC1)C2` [Example 279, [(2S)-3-(3-ethyl-4-oxo-spiro[6,8-dihydro-5H-pyrazolo[4,3-c]azepine-7,4′-tetrahydropyran]-1-yl)-2-methyl-propyl] 4-chlorobenzoate]: the IC50 is below 100 nM. In the case of `CCc1nn(CC(C)(C)COC(=O)C2CCCC2)c2c1C(=O)NCC1(CCOCC1)C2` [Example 281, [3-(3-ethyl-4-oxo-spiro[6,8-dihydro-5H-pyrazolo[4,3-c]azepine-7,4′-tetrahydropyran]-1-yl)-2,2-dimethyl-propyl] cyclopentanecarboxylate], the IC50 is below 100 nM. Under `CCc1nn(CC(C)(C)COC(=O)C(CC)CC)c2c1C(=O)NCC1(CCOCC1)C2` [Example 282, [3-(3-ethyl-4-oxo-spiro[6,8-dihydro-5H-pyrazolo[4,3-c]azepine-7,4′-tetrahydropyran]-1-yl)-2,2-dimethyl-propyl] 2-ethylbutanoate] stands below 100 nM. Consider `CCc1nn(CC(C)(C)COC(=O)c2ccc(C)cc2)c2c1C(=O)NCC1(CCOCC1)C2` [Example 283, [3-(3-ethyl-4-oxo-spiro[6,8-dihydro-5H-pyrazolo[4,3-c]azepine-7,4′-tetrahydropyran]-1-yl)-2,2-dimethyl-propyl] 4-methylbenzoate], for which the concentration for half-maximal inhibition (IC50) is below 100 nM. As for `CCc1nn(CC(C)(C)COC(=O)c2cccc(F)c2)c2c1C(=O)NCC1(CCOCC1)C2` [Example 284, [3-(3-ethyl-4-oxo-spiro[6,8-dihydro-5H-pyrazolo[4,3-c]azepine-7,4′-tetrahydropyran]-1-yl)-2,2-dimethyl-propyl] 3-fluorobenzoate], the IC50 is below 100 nM. On to `CCc1nn(CC(C)(C)COC(=O)c2ccc(F)cc2)c2c1C(=O)NCC1(CCOCC1)C2` [Example 285, [3-(3-ethyl-4-oxo-spiro[6,8-dihydro-5H-pyrazolo[4,3-c]azepine-7,4′-tetrahydropyran]-1-yl)-2,2-dimethyl-propyl] 4-fluorobenzoate], for which the IC50 is below 100 nM. Turning to `CCc1nn(CC(C)(C)COC(=O)c2ccccc2F)c2c1C(=O)NCC1(CCOCC1)C2` [Example 286, [3-(3-ethyl-4-oxo-spiro[6,8-dihydro-5H-pyrazolo[4,3-c]azepine-7,4′-tetrahydropyran]-1-yl)-2,2-dimethyl-propyl] 2-fluorobenzoate], the IC50 was below 100 nM. As to `CCc1nn(CC(C)(C)COC(=O)c2cccc(C#N)c2)c2c1C(=O)NCC1(CCOCC1)C2` [Example 287, [3-(3-ethyl-4-oxo-spiro[6,8-dihydro-5H-pyrazolo[4,3-c]azepine-7,4′-tetrahydropyran]-1-yl)-2,2-dimethyl-propyl] 3-cyanobenzoate], the IC50 is below 100 nM. Under `CCc1nn(CC(C)(C)COC(=O)c2ccc(C#N)cc2)c2c1C(=O)NCC1(CCOCC1)C2` [Example 288, [3-(3-ethyl-4-oxo-spiro[6,8-dihydro-5H-pyrazolo[4,3-c]azepine-7,4′-tetrahydropyran]-1-yl)-2,2-dimethyl-propyl] 4-cyanobenzoate] stands below 100 nM; under `CCc1nn(CC(C)(C)COC(=O)c2cccc(OC)c2)c2c1C(=O)NCC1(CCOCC1)C2` [Example 289, [3-(3-ethyl-4-oxo-spiro[6,8-dihydro-5H-pyrazolo[4,3-c]azepine-7,4′-tetrahydropyran]-1-yl)-2,2-dimethyl-propyl] 3-methoxybenzoate], below 100 nM. On to `CCc1nn(CC(C)(C)COC(=O)c2ccc(Cl)cc2)c2c1C(=O)NCC1(CCOCC1)C2` [Example 290, [3-(3-ethyl-4-oxo-spiro[6,8-dihydro-5H-pyrazolo[4,3-c]azepine-7,4′-tetrahydropyran]-1-yl)-2,2-dimethyl-propyl] 4-chlorobenzoate], for which the IC50 was below 100 nM. Regarding `CCc1nn(CC(C)(C)COC(=O)c2cccc(Cl)c2)c2c1C(=O)NCC1(CCOCC1)C2` [Example 291, [3-(3-ethyl-4-oxo-spiro[6,8-dihydro-5H-pyrazolo[4,3-c]azepine-7,4′-tetrahydropyran]-1-yl)-2,2-dimethyl-propyl] 3-chlorobenzoate], the IC50 was below 100 nM.

Consider `CCc1nn(CC(C)(C)COC(=O)c2ccccc2Cl)c2c1C(=O)NCC1(CCOCC1)C2` [Example 292, [3-(3-ethyl-4-oxo-spiro[6,8-dihydro-5H-pyrazolo[4,3-c]azepine-7,4′-tetrahydropyran]-1-yl)-2,2-dimethyl-propyl] 2-chlorobenzoate], for which the IC50 is below 100 nM. To `CCc1nn(CC(C)(C)COC(=O)c2cc(F)cc(F)c2)c2c1C(=O)NCC1(CCOCC1)C2` [Example 293, [3-(3-ethyl-4-oxo-spiro[6,8-dihydro-5H-pyrazolo[4,3-c]azepine-7,4′-tetrahydropyran]-1-yl)-2,2-dimethyl-propyl] 3,5-difluorobenzoate] belongs below 100 nM. With `CCc1nn(CC(C)(C)COC(=O)c2ccc(F)c(F)c2)c2c1C(=O)NCC1(CCOCC1)C2` [Example 294, [3-(3-ethyl-4-oxo-spiro[6,8-dihydro-5H-pyrazolo[4,3-c]azepine-7,4′-tetrahydropyran]-1-yl)-2,2-dimethyl-propyl] 3,4-difluorobenzoate], the IC50 is below 100 nM. Under `CCc1nn(CC(C)(C)COC(=O)c2ccc(C(C)=O)cc2)c2c1C(=O)NCC1(CCOCC1)C2` [Example 295, [3-(3-ethyl-4-oxo-spiro[6,8-dihydro-5H-pyrazolo[4,3-c]azepine-7,4′-tetrahydropyran]-1-yl)-2,2-dimethyl-propyl] 4-acetylbenzoate] stands below 100 nM; under `CCc1nn(CC(C)(C)COC(=O)c2cccc(C(C)=O)c2)c2c1C(=O)NCC1(CCOCC1)C2` [Example 296, [3-(3-ethyl-4-oxo-spiro[6,8-dihydro-5H-pyrazolo[4,3-c]azepine-7,4′-tetrahydropyran]-1-yl)-2,2-dimethyl-propyl] 3-acetylbenzoate], below 100 nM. For `CCc1nn(CC(C)(C)COC(=O)c2ccc(C#N)c(F)c2)c2c1C(=O)NCC1(CCOCC1)C2` [Example 297, [3-(3-ethyl-4-oxo-spiro[6,8-dihydro-5H-pyrazolo[4,3-c]azepine-7,4′-tetrahydropyran]-1-yl)-2,2-dimethyl-propyl] 4-cyano-3-fluoro-benzoate], the concentration for half-maximal inhibition (IC50) was below 100 nM.

With `CCc1nn(CC(C)(C)COC(=O)c2ccc(C#N)cc2F)c2c1C(=O)NCC1(CCOCC1)C2` [Example 298, [3-(3-ethyl-4-oxo-spiro[6,8-dihydro-5H-pyrazolo[4,3-c]azepine-7,4′-tetrahydropyran]-1-yl)-2,2-dimethyl-propyl] 4-cyano-2-fluoro-benzoate], the IC50 is below 100 nM. On to `CCOc1cccc(C(=O)OCC(C)(C)Cn2nc(CC)c3c2CC2(CCOCC2)CNC3=O)c1` [Example 299, [3-(3-ethyl-4-oxo-spiro[6,8-dihydro-5H-pyrazolo[4,3-c]azepine-7,4′-tetrahydropyran]-1-yl)-2,2-dimethyl-propyl] 3-ethoxybenzoate], for which the IC50 was below 100 nM.

In general, IC50 refers to the concentration that gives 50% inhibition.

For the origin of these results see patent publication US10906915B2, “Substituted pyrazoloazepin-4-ones and their use as phosphodiesterase inhibitors” (LEO Pharma A/S, priority 2016, dated 2021).
